# “And” between values parts separate entries of the source, which are not always exact repeats. Equal values may be shown once.
# Test: 14-day oral gavage toxicokinetic study in rats
# Format: in vivo
# Conditions: for Compound 1 Plasma Concentration: daily oral 2 mg/kg (Group 7), individual animals
# Method: Plasma was obtained from blood samples collected from rats in a composite sampling scheme, with 3 samples collected per sex, per dose, at each target collection time, as illustrated in Table 21 to Table 25. Samples were collected from the vehicle control group on Day 1 and Day 14 at 3 hour after administration. […] Blood samples were collected in tubes containing K3EDTA as an anticoagulant and placed on ice until processed to plasma via centrifugation. Samples were stored frozen at −80° C. until shipment to the bioanalytical laboratory for analysis.
# The following parameters were determined:
# Cmax: Maximum observed plasma concentration (ng/mL).
# A value of 0 ng/mL was assigned to all values below the lower limit of quantitation (BLQ, <10.0 ng/mL).
# AUC(0-inf): Area under the plasma concentration vs. time curve extrapolated from 0 to infinity (ng*h/mL), calculated as AUC(0-t)+AUC(t-inf) where AUC(t-inf) is calculated as last measurable concentration (CLast) divided by ke, where ke is the elimination rate constant determined by linear regression of the last three analytically measured points on the log plasma concentration vs. time curve. The selection criteria of the data points for inclusion in the calculation of ke required that at least three data points representing the terminal phase (after Tmax) were regressed and that R2≧0.850 when rounded.
# CL: Clearance (L/h/kg), calculated as the dose divided by AUC(0-t).
# Vd: Volume of distribution (L/kg), calculated as dose divided by the product of ke and AUC(0-inf).
# Vdss: Steady state volume of distribution (L/kg), calculated as clearance […] mean residence time, where mean residence time is calculated as the area under the first moment curve divided by AUC(0-t).
# t½: Elimination half-life (h), calculated as ln(2)/ke, where ke is the elimination rate constant determined by linear regression. Half-life was defined as not determined if regression criteria (specified in AUC(0-inf) above) were not met.
# Cmax/Dose: Normalized Cmax, calculated as Cmax divided by total dose.
# AUC/Dose: Normalized AUC, calculated as AUC(0-t) divided by total dose.
# ii. Statistical Analysis Mean and standard deviation (SD) were calculated in Watson. Values of BLQ were assigned a value of 0 ng/mL for mean calculations. Concentration values and derived TK parameters were reported to three significant figures.
# [1] = male, rat, plasma, po, 30 mg/kg, oral 30 mg/kg, Study Day 14, Male
smiles,measurement,setting,value
"CN1CCN(c2ccc(Nc3ncc4cc5n(c4n3)C3(CCCCC3)CNC5=O)nc2)CC1 [Compound 1, 2′-((5-(4-methylpiperazin-1-yl)pyridin-2-yl)amino)-7′,8′-dihydro-6′H-spiro[cyclohexane-1,9′-pyrazino[1′,2′:1,5]pyrrolo[2,3-d]pyrimidin]-6′-one]",AUC(0-t),[1],29300 ng·h/mL
same,Cmax,[1],2030 ng/mL
same,Tmax,[1],4 h
same,half-life,"male, rat, plasma, po, 30 mg/kg, oral 30 mg/kg, Study Day 14, Male, read-out: t½ (converted)",4.88 h
same,Compound 1 Plasma Concentration,"rats, Female, Day 1, 0.5 h, 2 mg/kg",69.7 ng/mL and 120 ng/mL
same,Compound 1 Plasma Concentration,"rats, Female, Day 1, 1 h, 2 mg/kg",53.3 ng/mL and 115 ng/mL and 106 ng/mL
same,Compound 1 Plasma Concentration,"rats, Female, Day 1, 2 h, 2 mg/kg",185 ng/mL and 187 ng/mL
same,Compound 1 Plasma Concentration,"rats, Female, Day 1, 4 h, 2 mg/kg",90.2 ng/mL and 201 ng/mL and 234 ng/mL
same,Compound 1 Plasma Concentration,"rats, Female, Day 1, 8 h, 2 mg/kg",70.0 ng/mL and 69.2 ng/mL and 151 ng/mL
same,Compound 1 Plasma Concentration,"rats, Female, Day 1, 12 h, 2 mg/kg",100 ng/mL and 54.7 ng/mL
same,Compound 1 Plasma Concentration,"rats, Female, Day 1, 24 h, 2 mg/kg",BLQ (Below the lower limit of quantitation (<10.0 ng/mL)) and 28.8 ng/mL and 10.2 ng/mL
same,Compound 1 Plasma Concentration,"rats, Female, Day 1, […]",BLQ (Below the lower limit of quantitation (<10.0 ng/mL))
same,Compound 1 Plasma Concentration,"rats, Female, Day 14, 0.5 h, 2 mg/kg",108 ng/mL
same,Compound 1 Plasma Concentration,"rats, Female, Day 14, 1 h, 2 mg/kg",113 ng/mL
same,Compound 1 Plasma Concentration,"rats, Female, Day 14, 2 h, 2 mg/kg",200 ng/mL
same,Compound 1 Plasma Concentration,"rats, Female, Day 14, 4 h, 2 mg/kg",119 ng/mL
same,Compound 1 Plasma Concentration,"rats, Female, Day 14, 8 h, 2 mg/kg",54.0 ng/mL
same,Compound 1 Plasma Concentration,"rats, Female, Day 14, 12 h, 2 mg/kg",65.4 ng/mL and 32.0 ng/mL
same,Compound 1 Plasma Concentration,"rats, Female, Day 14, 24 h, 2 mg/kg",BLQ (Below the lower limit of quantitation (<10.0 ng/mL))
same,Compound 1 Plasma Concentration,"rats, Female, Day 14, Predose",BLQ (Below the lower limit of quantitation (<10.0 ng/mL))
same,Compound 1 Plasma Concentration,"rats, Female, Day 14, […], 2 mg/kg",BLQ (Below the lower limit of quantitation (<10.0 ng/mL))
same,Compound 1 Plasma Concentration,"rats, Male, Day 1, 0.5 h, 2 mg/kg",64.1 ng/mL and 74.1 ng/mL and 35.0 ng/mL
same,Compound 1 Plasma Concentration,"rats, Male, Day 1, 1 h, 2 mg/kg",47.1 ng/mL and 65.2 ng/mL
same,Compound 1 Plasma Concentration,"rats, Male, Day 1, 2 h, 2 mg/kg",113 ng/mL and 95.5 ng/mL
same,Compound 1 Plasma Concentration,"rats, Male, Day 1, 4 h, 2 mg/kg",107 ng/mL and 148 ng/mL
same,Compound 1 Plasma Concentration,"rats, Male, Day 1, 8 h, 2 mg/kg",108 ng/mL and 64.1 ng/mL
same,Compound 1 Plasma Concentration,"rats, Male, Day 1, 12 h, 2 mg/kg",61.3 ng/mL and 47.8 ng/mL
same,Compound 1 Plasma Concentration,"rats, Male, Day 1, 24 h",BLQ (Below the lower limit of quantitation (<10.0 ng/mL))
same,Compound 1 Plasma Concentration,"rats, Male, Day 1, […]",BLQ (Below the lower limit of quantitation (<10.0 ng/mL))
same,Compound 1 Plasma Concentration,"rats, Male, Day 14, 0.5 h, 2 mg/kg",49.0 ng/mL and 55.7 ng/mL
same,Compound 1 Plasma Concentration,"rats, Male, Day 14, 1 h, 2 mg/kg",34.9 ng/mL and 61.2 ng/mL
same,Compound 1 Plasma Concentration,"rats, Male, Day 14, 2 h, 2 mg/kg",109 ng/mL and 91.3 ng/mL
same,Compound 1 Plasma Concentration,"rats, Male, Day 14, 4 h, 2 mg/kg",119 ng/mL and 112 ng/mL
same,Compound 1 Plasma Concentration,"rats, Male, Day 14, 8 h, 2 mg/kg",112 ng/mL and 102 ng/mL
same,Compound 1 Plasma Concentration,"rats, Male, Day 14, 12 h, 2 mg/kg",50.8 ng/mL and 45.6 ng/mL
same,Compound 1 Plasma Concentration,"rats, Male, Day 14, 24 h",BLQ (Below the lower limit of quantitation (<10.0 ng/mL))
same,Compound 1 Plasma Concentration,"rats, Male, Day 14, Predose",BLQ (Below the lower limit of quantitation (<10.0 ng/mL))
same,Compound 1 Plasma Concentration,"rats, Male, Day 14, […]",BLQ (Below the lower limit of quantitation (<10.0 ng/mL))
same,Mean Compound 1 Plasma Concentration,"rats, oral 2 mg/kg, Day 1, 24 h, Male, BLQ = <10.0 ng/mL",BLQ
same,Mean Compound 1 Plasma Concentration,"rats, oral 2 mg/kg, Day 1, […], Female, BLQ = <10.0 ng/mL",BLQ
same,Mean Compound 1 Plasma Concentration,"rats, oral 2 mg/kg, Day 1, […], Male, BLQ = <10.0 ng/mL",BLQ
same,Mean Compound 1 Plasma Concentration,"rats, oral 2 mg/kg, Day 1, […], Overall, BLQ = <10.0 ng/mL",BLQ
same,Mean Compound 1 Plasma Concentration,"rats, oral 2 mg/kg, Day 14, 24 h, Male, BLQ = <10.0 ng/mL",BLQ
same,Mean Compound 1 Plasma Concentration,"rats, oral 2 mg/kg, Day 14, Pre-dose, Female, BLQ = <10.0 ng/mL",BLQ
same,Mean Compound 1 Plasma Concentration,"rats, oral 2 mg/kg, Day 14, Pre-dose, Male, BLQ = <10.0 ng/mL",BLQ
same,Mean Compound 1 Plasma Concentration,"rats, oral 2 mg/kg, Day 14, Pre-dose, Overall, BLQ = <10.0 ng/mL",BLQ
same,Mean Compound 1 Plasma Concentration,"rats, oral 2 mg/kg, Day 14, […], Male, BLQ = <10.0 ng/mL",BLQ
same,Mean Compound 1 Plasma Concentration,"rats, oral 5 mg/kg, Day 14, Pre-dose, Male",20.0 ng/mL
same,Mean Compound 1 Plasma Concentration,"rats, oral 5 mg/kg, Day 14, Pre-dose, Overall",18.6 ng/mL
same,Mean Compound 1 Plasma Concentration,"rats, oral 15 mg/kg, Day 14, Pre-dose, Female",120 ng/mL
same,Mean Compound 1 Plasma Concentration,"rats, oral 15 mg/kg, Day 14, Pre-dose, Male",78.0 ng/mL
same,Mean Compound 1 Plasma Concentration,"rats, oral 15 mg/kg, Day 14, Pre-dose, Overall",99.2 ng/mL
same,Mean Compound 1 Plasma Concentration,"rats, oral 30 mg/kg, Day 14, Pre-dose, Female",336 ng/mL
same,Mean Compound 1 Plasma Concentration,"rats, oral 30 mg/kg, Day 14, Pre-dose, Overall",254 ng/mL
same,systemic exposure with increasing dose level,"rats, oral, Days 1 and 14",increased roughly proportionally

# Reference: patent publication US20160220569A1, “CDK4/6 Inhibitor Dosage Formulations For The Protection Of Hematopoietic Stem And Progenitor Cells During Chemotherapy” (G1 Therapeutics, Inc., priority 2015, published 2016)
